According to patent US20200207734A1, “HETEROCYCLIC COMPOUND AND USE THEREOF” (Takeda Pharmaceutical Company Limited, priority 2017, published 2020):

The molecules below were run against T1, human orexin type 2 receptor (Homo sapiens, UniProt O43614) (assay: Measurement of orexin type 2 receptor agonist activity (calcium fluorescence, CHO cells expressing hOX2R)). Settings: test compound 3 μM; CHO cells expressing human OX2 receptor; DMSO = 0%, orexin A (human) = 100%.
T1 construct: human orexin type 2 receptor cDNA was inserted into pcDNA3.1(+) plasmid vector (Invitrogen); expressed in transfected cells
T1 sequence (O43614 1-444): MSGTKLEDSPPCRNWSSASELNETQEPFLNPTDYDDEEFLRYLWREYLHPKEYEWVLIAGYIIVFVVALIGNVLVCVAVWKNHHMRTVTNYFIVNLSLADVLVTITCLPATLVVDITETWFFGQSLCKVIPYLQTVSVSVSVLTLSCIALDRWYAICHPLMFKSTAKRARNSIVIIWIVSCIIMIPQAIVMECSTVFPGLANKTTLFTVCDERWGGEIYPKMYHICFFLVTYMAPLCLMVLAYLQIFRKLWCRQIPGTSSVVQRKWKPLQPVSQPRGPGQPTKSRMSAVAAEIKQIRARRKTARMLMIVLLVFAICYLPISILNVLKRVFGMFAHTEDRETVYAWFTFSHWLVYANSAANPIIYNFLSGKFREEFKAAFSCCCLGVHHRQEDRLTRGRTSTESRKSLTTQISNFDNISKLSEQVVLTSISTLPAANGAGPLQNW
Assay type: cell-based
Procedure, shortened: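 CHO-dhfr cells stably expressing hOX2R, loaded with Fluo-4 AM in HBSS/20 mM HEPES/0.1% BSA with probenecid, then given test compound. Calcium fluorescence was read for about 2 min 40 sec. Activity (%) was scaled between DMSO (0%) and 10 nM final human orexin A (100%).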

First: CC(C)(O)C(=O)N1CC[C@H](NS(=O)(=O)CF)[C@@H]1Cc1cccc(-c2cccc(F)c2)c1F [Example 417, N-((2S,3S)-2-((2,3′-difluorobiphenyl-3-yl)methyl)-1-(2-hydroxy-2-methylpropanoyl)pyrrolidin-3-yl)-1-fluoromethanesulfonamide]
Second: CCS(=O)(=O)N[C@H]1CCN(C(=O)C(C)(C)O)[C@H]1Cc1cccc(-c2cccc(F)c2)c1F [Example 488, N-((2S,3S)-2-((2,3′-difluorobiphenyl-3-yl)methyl)-1-(2-hydroxy-2-methylpro-panoyl)pyrrolidin-3-yl)ethanesulfona-mide]
The “OX2R agonist activity (3 μM, %)” value of the first is higher: 110% for the first, 101% for the second.

Compared with `CC(C)(O)C(=O)N1CC[C@H](NS(=O)(=O)CF)[C@@H]1Cc1cccc(-c2cc(F)cc(F)c2)c1` [Example 421, N-((2S,3S)-2-((3′,5′-difluorobiphenyl-3-yl)methyl)-1-(2-hydroxy-2-methylpropanoyl)pyrrolidin-3-yl)-1-fluoromethanesulfonamide], `CC(C)(O)C(=O)N1CC[C@H](NS(=O)(=O)CF)[C@@H]1Cc1cccc(-c2cc(F)cc(F)c2)c1F` [Example 423, 1-fluoro-N-((2S,3S)-1-(2-hydroxy-2-methylpropanoyl)-2-((2,3′,5′-trifluorobiphenyl-3-yl)methyl)pyrrolidin-3-yl)methanesulfonamide] is higher in “OX2R agonist activity (3 μM, %)” value: 106% for the first, 109% for the second.

First: CC(C)(O)C(=O)N1CC[C@H](NS(=O)(=O)C(F)F)[C@@H]1Cc1cccc(-c2cc(F)cc(F)c2)c1F [Example 424, 1,1-difluoro-N-((2S,3S)-1-(2-hydroxy-2-methylpropanoyl)-2-((2,3′,5′-trifluorobiphenyl-3-yl)methyl)pyrrolidin-3-yl)methanesulfonamide]
Second: CCS(=O)(=O)N[C@H]1CCN(C(=O)C(C)(C)O)[C@H]1Cc1cccc(-c2cc(F)cc(F)c2)c1F [Example 435, N-((2S,3S)-1-(2-hydroxy-2-methylpropanoyl)-2-((2,3′,5′-trifluorobiphenyl-3-yl)methyl)pyrrolidin-3-yl)ethanesulfonamide]
The “OX2R agonist activity (3 μM, %)” value of the first is lower: 101% for the first, 107% for the second.

First: CC(C)(O)C(=O)N1CC[C@H](NS(C)(=O)=O)[C@@H]1Cc1cccc(-c2cc(F)cc(Cl)c2)c1F [Example 428, N-((2S,3S)-2-((3′-chloro-2,5′-difluorobiphenyl-3-yl)methyl)-1-(2-hydroxy-2-methylpropanoyl)pyrrolidin-3-yl)methanesulfonamide]
Second: CCS(=O)(=O)N[C@H]1CCN(C(=O)C(C)(C)O)[C@H]1Cc1cccc(-c2cc(F)cc(Cl)c2)c1F [Example 437, N-((2S,3S)-2-((3′-chloro-2,5′-difluorobiphenyl-3-yl)methyl)-1-(2-hydroxy-2-methylpropanoyl)pyrrolidin-3-yl)ethanesulfonamide]
The “OX2R agonist activity (3 μM, %)” value of the first is higher: 102% for the first, 99% for the second.

Compared with `CCS(=O)(=O)N[C@H]1CCN(C(=O)C(C)(C)O)[C@H]1Cc1cccc(-c2cccc(Cl)c2)c1F` [Example 431, N-((2S,3S)-2-((3′-chloro-2-fluorobiphenyl-3-yl)methyl)-1-(2-hydroxy-2-methylpropanoyl)pyrrolidin-3-yl)ethanesulfonamide], `CC(C)(O)C(=O)N1CC[C@H](NS(=O)(=O)C2(F)CC2)[C@@H]1Cc1cccc(-c2ccccc2)c1F` [Example 479, 1-fluoro-N-[(2S,3S)-2-[(2-fluoro[1,1′-biphenyl]-3-yl)methyl]-1-(2-hydroxy-2-methylpropanoyl)pyrrolidin-3-yl] cyclopropane-1-sulfonamide] is higher in “OX2R agonist activity (3 μM, %)” value: 101% for the first, 103% for the second.

First: CC(C)(O)C(=O)N1CC[C@H](NS(=O)(=O)C2CC2)[C@@H]1Cc1cccc(-c2cc(F)cc(F)c2)c1F [Example 439, N-((2S,3S)-1-(2-hydroxy-2-methylpropanoyl)-2-((2,3′,5′-trifluorobiphenyl-3-yl)methyl)pyrrolidin-3-yl)cyclopropanesulfonamide]
Second: CC(C)(O)C(=O)N1CC[C@H](NS(=O)(=O)C2(F)CC2)[C@@H]1Cc1cccc(-c2cc(F)cc(F)c2)c1F [Example 480, 1-fluoro-N-{(2S,3S)-1-(2-hydroxy-2-methylpropanoyl)-2-[(2,3′,5′-trifluoro[1,1′-biphenyl]-3-yl)methyl]pyrrolidin-3-yl}cyclopropane-1-sulfonamide]
The “OX2R agonist activity (3 μM, %)” value of the first is lower: 98% for the first, 113% for the second.

Going from `CS(=O)(=O)N[C@H]1CCN(C(=O)C2CCO2)[C@H]1Cc1cccc(-c2cc(F)cc(F)c2)c1F` (stereo partly drawn) [Example 441, N-{(2S,3S)-1-(oxetane-2-carbonyl)-2-[(2,3′,5′-trifluoro[1,1′-biphenyl]-3-yl)methyl]pyrrolidin-3-yl}methanesulfonamide] to `CC(C)(CO)C(=O)N1CC[C@H](NS(C)(=O)=O)[C@@H]1Cc1cccc(-c2cc(F)cc(F)c2)c1F` [Example 457, N-{(2S,3S)-1-(3-hydroxy-2,2-dimethylpropanoyl)-2-[(2,3′,5′-trifluoro[1,1′-biphenyl]-3-yl)methyl]pyrrolidin-3-yl}methanesulfonamide], the “OX2R agonist activity (3 μM, %)” value rises from 99% to 103%.

First: O=C(N1CCC1)N1CC[C@H](NS(=O)(=O)CF)[C@@H]1Cc1cccc(-c2cccc(F)c2)c1 [Example 459, N-{(2S,3S)-1-(azetidine-1-carbonyl)-2-[(3′-fluoro[1,1′-biphenyl]-3-yl)methyl]pyrrolidin-3-yl}-1-fluoromethanesulfonamide]
Second: O=C(N1CCC1)N1CC[C@H](NS(=O)(=O)CF)[C@@H]1Cc1cccc(-c2ccccc2)c1 [Example 460, N-{(2S,3S)-1-(azetidine-1-carbonyl)-2-[([1,1′-biphenyl]-3-yl)methyl]pyrrolidin-3-yl}-1-fluoromethanesulfonamide]
The “OX2R agonist activity (3 μM, %)” value of the first is higher: 93% for the first, 92% for the second.

Going from `O=C(N1CCC1)N1CC[C@H](NS(=O)(=O)C2CC2)[C@@H]1Cc1cccc(-c2cccc(F)c2)c1` [Example 462, N-{(2S,3S)-1-(azetidine-1-carbonyl)-2-[(3′-fluoro[1,1′-biphenyl]-3-yl)methyl]pyrrolidin-3-yl}cyclopropanesulfonamide] to `O=C(N1CCC1)N1CC[C@H](NS(=O)(=O)C2CC2)[C@@H]1Cc1cccc(-c2ccccc2)c1` [Example 463, N-{(2S,3S)-1-(azetidine-1-carbonyl)-2-[([1,1′-biphenyl]-3-yl)methyl]pyrrolidin-3-yl}cyclopropanesulfonamide], the “OX2R agonist activity (3 μM, %)” value falls from 112% to 105%.

First: O=C(N1CCC1)N1CC[C@H](NS(=O)(=O)CF)[C@@H]1Cc1cccc(-c2ccccc2)c1F [Example 466, N-{(2S,3S)-1-(azetidine-1-carbonyl)-2-[(2-fluoro[1,1′-biphenyl]-3-yl)methyl]pyrrolidin-3-yl}-1-fluoromethanesulfonamide]
Second: O=C(N1CCC1)N1CC[C@H](NS(=O)(=O)CF)[C@@H]1Cc1cccc(-c2cccc(F)c2)c1F [Example 467, N-{(2S,3S)-1-(azetidine-1-carbonyl)-2-[(2,3′-difluoro[1,1′-biphenyl]-3-yl)methyl]pyrrolidin-3-yl}-1-fluoro-methanesulfonamide]
The “OX2R agonist activity (3 μM, %)” value of the first is higher: 108% for the first, 101% for the second.

In the case of `CCS(=O)(=O)N[C@H]1CCN(C(=O)C2CCC2)[C@H]1Cc1cccc(-c2ccccc2)c1` [Example 471, N-[(2S,3S)-2-[([1,1′-biphenyl]-3-yl)methyl]-(cyclobutanecarbonyl)pyrrolidin-3-yl]ethanesulfonamide], the “OX2R agonist activity (3 μM, %)” value is reported as 116%.
